In experiment [1] the test system is Newcastle disease virus (NDV). As to the kind of experiment: microbe, parasite or virus in culture. The experiment is classed as cell-based, Newcastle disease virus (host: chick embryo). The conditions noted are these: for inhibition at 39 µg/mL / inhibition at 78 µg/mL / inhibition at 156 µg/mL: avian paramyxovirus 1, in Gallus gallus, 48 h, read-out: % Inhibition of NDV Multiplications.

A short description of experiment [2]: Antiviral activity in vivo (statement only). Particulars: no test details given.

The text below walks through data of patent US4002690A (priority 1974, dated 1977).

A word on the inhibition: it is the percentage by which the read-out fell short of the control.

Molecules are shown by their SMILES. Counter-ions that a name gives are not always drawn.

On to `OCC12CCCC3CC(CCC31)C2` (stereo not drawn) [II], for which the “antiviral activity compared with Amantadine hydrochloride” value in experiment [1] (NDV, in vitro, chick embryo monolayer tissue culture) is “extremely superior to that of Amantadine hydrochloride”. In addition, in experiment [1], the inhibition at 39 µg/mL is 0%, the inhibition at 78 µg/mL was 91.2% and the inhibition at 156 µg/mL came out at 99.8%. The “virus replication in the tissue culture” value in experiment [1] (containing above 39 μg/ml of carbinol (II)) is “almost completely inhibited”. In experiment [2], the “antiviral activity in vivo” value is “potent antiviral activity in vivo”.
Consider `NC12CC3CC(CC(C3)C1)C2` [Amantadine.HCl, reference compound], for which, in experiment [1], the inhibition at 39 µg/mL was found to be 0%, the inhibition at 78 µg/mL worked out at 0% and the inhibition at 156 µg/mL stood at 0%.
